According to patent US8926966B1 (Regents of the University of California, priority 1990, dated 2015):
Like-named read-outs stand apart in the source and are kept apart here.

Tests used:
spleen cells of NOD mice [1] = assay: Proliferative responses of NOD spleen cells to GAD peptides; type: cell-based, mouse; settings: peptide 7 μM, 5-day culture
Procedure: The fine specificity of the anti-GAD T-cell response was mapped using a set of 38 peptides (numbered successively from the N-terminus) that were 20-23 amino acids (aa) long and span the entire GAD65 (Bu, et al., Proc. Natl. Acad. Sci., 89:2115-2119, 1992) sequence with 5aa overlaps (FIG. 10).
Peptides were present in cultures at 7 μM and the label was added during the last 16 hours of a 5-day culture. The peptides were synthesized using standard Fmoc chemistry and purified by reverse phase HPLC (Advanced Chemtech). The sequence of stimulatory peptides are shown below in Table 9.

NOD mice [2] = assay: Insulitis score after tolerization of NOD mice; type: in vivo, mouse; settings: examined at 12 weeks
spleen cells of NOD mice [3] = assay: Spleen cell proliferation (recall response to antigens) after tolerization of NOD mice; type: cell-based, mouse; settings: tested at 12 weeks; for Spleen Cell Proliferation (SI ± SEM) GAD: recall antigen GAD; for Spleen Cell Proliferation (SI ± SEM) GAD Peptides #17: recall antigen GAD peptide #17; for Spleen Cell Proliferation (SI ± SEM) GAD Peptides #34: recall antigen GAD peptide #34; for Spleen Cell Proliferation (SI ± SEM) GAD Peptides #35: recall antigen GAD peptide #35; for Spleen Cell Proliferation (SI ± SEM) hsp Peptide: recall antigen hsp peptide; for Spleen Cell Proliferation (SI ± SEM) β-Gal: recall antigen β-Gal
Procedure: Incorporation of label was measured by liquid scintillation counting.

NOD mice [4] = assay: GAD immunization of 8 week old NOD mice, IDDM onset; type: in vivo, mouse; settings: 25 ug i.p. in IFA at 8 weeks, again every 6 weeks
From the text: Breeder mice were purchased from Taconic Farms and housed under specific pathogen-free conditions. Only female NOD mice were used in this study. […] Insulitis is generally observed beginning at 4 weeks of age. […] The incidence of IDDM in female mice is 70-90% by one year of age.
Urine glucose levels were monitored twice weekly. After observing above normal glucose in urea, blood glucose levels were monitored twice weekly.

[5] = tested on: IDDM autoantibodies in sera of human patients; assay: Autoantibody reactivity with ^35S labeled GAD65 segments (immunoprecipitation, SDS-PAGE); type: binding; settings: IDDM patient sera of Table 10
From the text: Portions of human GAD65 cDNA were amplified by the polymerase chain reaction (PCR; Saiki, et al., Science, 239:487, 1988) to produce DNA segments encoding three polypeptide segments: amino acid residues 1-224 (segment A); 224-398 (segment B); and 398-585 (segment C). Each construct also contained a T7 promoter, a consensus sequence for the initiation of translation and an initiating methionine codon (Korak, M., J. Cell Biol., 108:229, 1989). Each PCR product was then trascribed in vitro with T7 RNA polymerase and translated in vitro in a rabbit reticulocyte cell-free system in the presence of ^35S-methionine, using conditions recommended by the supplier (Amersham Corp., Arlington Heights, Ill.). Each test serum (30 μl) was incubated with the resulting ^35S labeled-polypeptides. The bound peptides were isolated with PAS and analyzed by SDS-PAGE in 12% polyaacrylamide and autoradiography.

[6] = tested on: IDDM associated autoantibodies in sera; assay: ELISA of sera on plate-bound human GAD65 peptides; type: binding; settings: for number of IDDM (at risk, pre-IDDM, at onset) patients positive (X) for the peptide (unlabelled sum line): IDDM sera of Table 11
Outline: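 Blinded, coded sera (1/300) bound 1 h at 37 °C to wells coated overnight at 4 °C with peptides (20 ug/ml, pH 9.6), BSA-blocked. Detection with HRP-goat anti-human IgG (1/600), read at 410 nm; positive when sample/negative-control OD410 ≥3.0.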

[7] = tested on: islet infiltrating T lymphocytes (IITLs); assay: ^3H-thymidine incorporation, islet infiltrating T lymphocytes; type: cell-based
splenic lymphocytes = assay: ^3H-thymidine incorporation, splenic lymphocytes; type: cell-based
[8] = Table 8B: neonatal i.p. with IFA
[9] = Table 8C: i.v. at three weeks of age

With NMYAMMIARFKMFPEVKEKG [Peptide 17] as the molecule, how does the “age of NOD mice at first regularly detectable proliferative response” value (spleen cells of NOD mice [1]) read?
The value was 5 weeks.

Which “Insultis Score” value (NOD mice [2]; Table 8A: female NOD mice, i.v. at 3 weeks of age, 50 μg (hsp-p 0.1 μg) in PBS, scale 0-4, mean ± SE) does the source give for “β-Gal.: E. coli β-galactosidase, control antigen purified from recombinant bacteria [reference compound]” here?
Its value is 2.6 ± 0.6.

And the “Spleen Cell Proliferation (SI ± SEM) CPH” value (spleen cells of NOD mice [3]; Table 8A: i.v. at 3 weeks, recall antigen CPH)?
Its value is 11.5 ± 0.9 SI.

What about the “Spleen Cell Proliferation (SI ± SEM) GAD” value (spleen cells of NOD mice [3]; Table 8A: i.v. at 3 weeks) of the same molecule?
Its value is 15.4 ± 1.8 SI.

What about the “Spleen Cell Proliferation (SI ± SEM) GAD Peptides #17” value (spleen cells of NOD mice [3]; Table 8A: i.v. at 3 weeks) of the same molecule?
Its value is 5.1 ± 0.6 SI.

And the “Spleen Cell Proliferation (SI ± SEM) GAD Peptides #34” value (spleen cells of NOD mice [3]; Table 8A: i.v. at 3 weeks)?
The value was 5.1 ± 0.6 SI.

What about the “Spleen Cell Proliferation (SI ± SEM) GAD Peptides #35” value (spleen cells of NOD mice [3]; Table 8A: i.v. at 3 weeks) of the same molecule?
The value was 4.0 ± 0.2 SI.

And the “Spleen Cell Proliferation (SI ± SEM) hsp Peptide” value (spleen cells of NOD mice [3]; Table 8A: i.v. at 3 weeks)?
The value was 6.6 ± 0.5 SI.

What about the “Spleen Cell Proliferation (SI ± SEM) β-Gal” value (spleen cells of NOD mice [3]; Table 8A: i.v. at 3 weeks) of the same molecule?
Its value is 1.1 ± 0.1 SI.

And the “mice that developed IDDM by 27 weeks in age” value (NOD mice [4])?
The value was 6/10.

And the “mice remaining disease free at 52 weeks of age” value (NOD mice [4]; 10 mice per group)?
The value was 2.

With “Segment B: human GAD65 amino acid residues 224-398, in vitro translated, ^35S labeled” as the molecule, how does the “patients with antibodies reactive with the segment” value (shortened to “patients with antibodies reactive”) [5] read?
Its value is 41%.

Which “Insultis Score” value (NOD mice [2]; Table 8B: neonatal female NOD mice, i.p. with IFA, scale 0-4) does the source give for EEILMHCQTTLKYAIKTGHP [Peptide 11] here?
The value was “≈2.5”.

And the “Spleen Cell Proliferation (SI ± SEM) GAD” value (spleen cells of NOD mice [3]; [8])?
The value was 21.1 ± 2.2 SI.

And the “Spleen Cell Proliferation (SI ± SEM) GAD Peptides #17” value (spleen cells of NOD mice [3]; [8])?
The value was 13.7 ± 1.5 SI.

And the “Spleen Cell Proliferation (SI ± SEM) GAD Peptides #34” value (spleen cells of NOD mice [3]; [8])?
Its value is 11.4 ± 1.5 SI.

And the “Spleen Cell Proliferation (SI ± SEM) GAD Peptides #35” value (spleen cells of NOD mice [3]; [8])?
The value was 11.3 ± 0.7 SI.

What about the “Spleen Cell Proliferation (SI ± SEM) hsp Peptide” value (spleen cells of NOD mice [3]; [8]) of the same molecule?
Its value is 13.3 ± 0.9 SI.

What about the “Spleen Cell Proliferation (SI ± SEM) β-Gal” value (spleen cells of NOD mice [3]; [8]) of the same molecule?
The value was 1.0 ± 0.1 SI.

What about the “Spleen Cell Proliferation (SI ± SEM) GAD” value (spleen cells of NOD mice [3]; [9]) of the same molecule?
Its value is 12.1 ± 3.5 SI.

What about the “Spleen Cell Proliferation (SI ± SEM) GAD Peptides #17” value (spleen cells of NOD mice [3]; [9]) of the same molecule?
The value was 6.9 ± 0.4 SI.

What about the “Spleen Cell Proliferation (SI ± SEM) GAD Peptides #34” value (spleen cells of NOD mice [3]; [9]) of the same molecule?
Its value is 6.4 ± 1.0 SI.

And the “Spleen Cell Proliferation (SI ± SEM) GAD Peptides #35” value (spleen cells of NOD mice [3]; [9])?
Its value is 6.8 ± 0.3 SI.

And the “Spleen Cell Proliferation (SI ± SEM) hsp Peptide” value (spleen cells of NOD mice [3]; [9])?
The value was 8.7 ± 0.9 SI.

And the “Spleen Cell Proliferation (SI ± SEM) β-Gal” value (spleen cells of NOD mice [3]; [9])?
Its value is 1.4 ± 0.4 SI.

And the “immunoreactivity of serum with GAD65 peptide” value (“immunoreactivity of serum” for short) ([6]; IDDM At Risk serum 825, 1/300 dilution)?
Its value is “X (X = positive for immunoreactivity as defined by 00/background^3.0)”.

And the “immunoreactivity of serum” value ([6]; IDDM At Risk serum L.I., 1/300 dilution)?
The value was “b (b = borderline response (00/background ?2.5-2.9).)”.

And the “number of IDDM (at risk, pre-IDDM, at onset) patients positive (X) for the peptide (unlabelled sum line)” value [6]?
The value was 2.

And the “immunoreactivity of serum” value ([6]; Pre-IDDM serum B.Y. (1), 1/300 dilution)?
Its value is “X (X = positive for immunoreactivity as defined by 00/background^3.0)”.

What about the “immunoreactivity of serum” value ([6]; Pre-IDDM serum J.B. (1), 1/300 dilution) of the same molecule?
The value was “b (b = borderline response (00/background ?2.5-2.9).)”.

And the “immunoreactivity of serum” value ([6]; Pre-IDDM serum J.B. (2), 1/300 dilution)?
The value was “b (b = borderline response (00/background ?2.5-2.9).)”.

What about the “immunoreactivity of serum” value ([6]; Pre-IDDM serum R.S. (1), 1/300 dilution) of the same molecule?
The value was “b (b = borderline response (00/background ?2.5-2.9).)”.

And the “immunoreactivity of serum” value ([6]; Pre-IDDM serum R.S. (2), 1/300 dilution)?
Its value is “b (b = borderline response (00/background ?2.5-2.9).)”.

Which “^3H-THYMIDINE INCORPORATION (cpm) BY LYMPHOID CELL POPULATION IITLs” value ([7]; 3 × 10^4 cells/well, 5 days culture with irradiated spleen cells) does the source give for ARFKMFPEVKEKGMAA [GAD65 (SEQ ID NO. 5)] here?
Its value is 9,500 cpm.

And the “IITL proliferative response relative to culture media or polio polypeptide” value ([7]; IITL population)?
Its value is 9 fold.

And the “^3H-THYMIDINE INCORPORATION (cpm) BY LYMPHOID CELL POPULATION SPLEEN” value (splenic lymphocytes; 1 × 10^5 cells/well, 5 days culture)?
Its value is 23,300 cpm.

With “MKSMCPQAQLKVKYL [Poliovirus (SEQ ID NO. 4), reference compound]” as the molecule, how does the “^3H-THYMIDINE INCORPORATION (cpm) BY LYMPHOID CELL POPULATION IITLs” value [7] read?
Its value is 900 cpm.

And the “^3H-THYMIDINE INCORPORATION (cpm) BY LYMPHOID CELL […]” value (splenic lymphocytes)?
The value was 22,500 cpm.

Which results are given for SRLSKVAPVIKARMMEYGTT [Peptide 35]?
number of IDDM (at risk, pre-IDDM, at onset) patients positive (X) for the peptide (unlabelled sum line) [6]: 1; immunoreactivity of serum with GAD65 peptide ([6]; Pre-IDDM serum 723, 1/300 dilution): X (X = positive for immunoreactivity as defined by 00/background^3.0); age of NOD mice at first regularly detectable proliferative response (spleen cells of NOD mice [1]): 4 weeks

With IPPSLRTLEDNEERMSRLSK [Peptide 34] as the molecule, how does the “immunoreactivity of serum” value ([6]; IDDM At Onset serum 048, 1/300 dilution) read?
The value was “X (X = positive for immunoreactivity as defined by 00/background^3.0)”.

What about the “immunoreactivity of serum” value ([6]; IDDM At Onset serum 291, 1/300 dilution) of the same molecule?
The value was “b (b = borderline response (00/background ?2.5-2.9).)”.

And the “number of IDDM (at risk, pre-IDDM, at onset) patients positive (X) for the peptide (unlabelled sum line)” value [6]?
The value was 1.

What about the “age of NOD mice at first regularly detectable proliferative response” value (spleen cells of NOD mice [1]) of the same molecule?
Its value is 4 weeks.

B1: Segment C: human GAD65 amino acid residues 398-585, in vitro translated, ^35S labeled (protein)
chain: MMGVPLQCSALLVREEGLMQNCNQMHASYLFQQDKHYDLSYDTGDKALQCGRHVDVFKLWLMWRAKGTTGFEAHVDKCLELAEYLYNIIKNREGYEMVFDGKPQHTNVCFWYIPPSLRTLEDNEERMSRLSKVAPVIKARMMEYGTTMVSYQPLGDKVNFFRMVISNPAATHQDIDFLIEEIERLGQDL
Which “patients with antibodies reactive” value [5] does the source give for B1 here?
The value was 27%.

B2: Segment A: human GAD65 amino acid residues 1-224, in vitro translated, ^35S labeled (protein)
chain: MASPGSGFWSFGSEDGSGDSENPGTARAWCQVAQKFTGGIGNKLCALLYGDAEKPAESGGSQPPRAAARKAACACDQKPCSCSKVDVNYAFLHATDLLPACDGERPTLAFLQDVMNILLQYVVKSFDRSTKVIDFHYPNELLQEYNWELADQPQNLEEILMHCQTTLKYAIKTGHPRYFNQLSTGLDMVGLAADWLTSTANTNMFTYEIAPVFVLLEYVTLKKM
For B2, which “patients with antibodies reactive” value [5] is on record?
The value was “none”.
